13 compounds from patent publication US11739098B2 (BRISTOL-MYERS SQUIBB COMPANY, priority 2017, dated 2023) can be followed below.

Holding throughout (format): cell-based
One assay deals with T1, human TLR8 (Homo sapiens, UniProt Q9NR97).
T1 construct: host or cells: HEK-Blue cells (HEK293-derived reporter line)
T1 sequence (Q9NR97 27-1041): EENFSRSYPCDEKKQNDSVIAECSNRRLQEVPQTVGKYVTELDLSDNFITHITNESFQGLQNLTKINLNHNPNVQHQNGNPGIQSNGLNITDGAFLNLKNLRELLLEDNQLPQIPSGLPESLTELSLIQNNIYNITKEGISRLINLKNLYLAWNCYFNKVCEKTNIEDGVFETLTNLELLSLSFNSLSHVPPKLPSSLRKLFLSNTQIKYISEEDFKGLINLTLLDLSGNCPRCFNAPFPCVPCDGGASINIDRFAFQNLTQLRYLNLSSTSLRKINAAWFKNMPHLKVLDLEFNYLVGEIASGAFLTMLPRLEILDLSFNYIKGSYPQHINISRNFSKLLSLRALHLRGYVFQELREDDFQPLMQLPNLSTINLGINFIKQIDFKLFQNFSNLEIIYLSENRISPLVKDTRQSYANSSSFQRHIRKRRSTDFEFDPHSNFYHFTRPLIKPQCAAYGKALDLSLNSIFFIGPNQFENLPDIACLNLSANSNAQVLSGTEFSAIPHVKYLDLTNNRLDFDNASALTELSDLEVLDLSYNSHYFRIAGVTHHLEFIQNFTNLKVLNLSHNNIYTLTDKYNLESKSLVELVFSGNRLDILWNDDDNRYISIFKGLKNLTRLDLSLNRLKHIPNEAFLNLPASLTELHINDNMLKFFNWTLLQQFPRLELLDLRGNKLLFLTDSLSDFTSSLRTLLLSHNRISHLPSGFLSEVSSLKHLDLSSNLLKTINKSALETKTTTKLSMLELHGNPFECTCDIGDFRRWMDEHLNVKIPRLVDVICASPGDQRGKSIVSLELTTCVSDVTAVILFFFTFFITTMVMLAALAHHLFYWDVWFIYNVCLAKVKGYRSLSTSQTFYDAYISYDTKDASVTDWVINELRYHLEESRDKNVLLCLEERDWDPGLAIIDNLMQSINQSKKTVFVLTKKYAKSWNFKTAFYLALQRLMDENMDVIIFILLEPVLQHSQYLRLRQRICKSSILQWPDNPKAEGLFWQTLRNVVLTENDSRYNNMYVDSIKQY
The experiment in a line: TLR8 inhibition reporter assay (HEK-Blue cells, SEAP reporter, R848 stimulation). The note with it: HEK-Blue cells overexpressing human TLR8, SEAP reporter, R848 15.9 μM. Summed up:
(§1)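 HEK-Blue cells overexpressing human TLR7, TLR8 or TLR9 (NF-κB/AP-1-driven SEAP) pre-treated 30 min at room temperature with compound (0.05 nM–50 μM), then stimulated with gardiquimod 7.5 μM (TLR7), R848 15.9 μM (TLR8) or ODN2006 5 nM (TLR9). SEAP read colorimetrically after 22 h at 37 °C; % inhibition calculated.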
For orientation: Reporter assays use an easily measured gene product as a stand-in for the process of interest.

Another assay has as its target T2, human TLR9 (Homo sapiens, UniProt Q9NR96).
T2 construct: host or cells: HEK-Blue cells (HEK293-derived reporter line)
T2 sequence (Q9NR96 26-1032): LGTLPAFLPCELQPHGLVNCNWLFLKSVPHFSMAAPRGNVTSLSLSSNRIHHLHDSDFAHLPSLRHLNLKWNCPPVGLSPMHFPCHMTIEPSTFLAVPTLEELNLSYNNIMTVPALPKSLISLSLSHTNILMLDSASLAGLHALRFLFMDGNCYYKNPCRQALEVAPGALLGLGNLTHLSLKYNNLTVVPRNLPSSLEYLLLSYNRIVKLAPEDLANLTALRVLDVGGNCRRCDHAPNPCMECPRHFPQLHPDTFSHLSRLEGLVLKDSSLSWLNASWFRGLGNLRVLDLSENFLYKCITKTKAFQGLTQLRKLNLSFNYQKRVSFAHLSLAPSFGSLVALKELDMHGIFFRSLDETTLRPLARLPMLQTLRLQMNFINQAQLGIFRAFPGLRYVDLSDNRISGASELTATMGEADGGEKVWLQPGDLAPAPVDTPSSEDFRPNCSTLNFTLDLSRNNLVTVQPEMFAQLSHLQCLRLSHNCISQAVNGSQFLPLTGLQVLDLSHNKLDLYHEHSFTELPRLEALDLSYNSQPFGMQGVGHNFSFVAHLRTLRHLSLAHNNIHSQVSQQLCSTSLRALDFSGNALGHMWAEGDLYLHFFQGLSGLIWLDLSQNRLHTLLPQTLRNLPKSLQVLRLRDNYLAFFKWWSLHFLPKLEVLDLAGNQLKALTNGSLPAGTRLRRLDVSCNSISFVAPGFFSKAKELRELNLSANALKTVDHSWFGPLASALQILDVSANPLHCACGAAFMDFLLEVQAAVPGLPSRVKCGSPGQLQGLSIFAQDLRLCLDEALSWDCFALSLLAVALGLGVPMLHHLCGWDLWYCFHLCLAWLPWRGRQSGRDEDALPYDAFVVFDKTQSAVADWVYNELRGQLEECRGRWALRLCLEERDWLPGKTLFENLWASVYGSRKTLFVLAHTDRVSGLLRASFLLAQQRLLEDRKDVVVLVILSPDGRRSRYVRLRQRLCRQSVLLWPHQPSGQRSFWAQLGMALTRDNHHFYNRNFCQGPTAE
Briefly: TLR9 inhibition reporter assay (HEK-Blue cells, SEAP reporter, ODN2006 stimulation). The note with it: HEK-Blue cells overexpressing human TLR9, SEAP reporter, ODN2006 5 nM. An outline of the steps: as §1

The target of a further assay is T3, human TLR7 (Homo sapiens, UniProt Q9NYK1).
T3 construct: host or cells: HEK-Blue cells (HEK293-derived reporter line)
T3 sequence (Q9NYK1 27-1049): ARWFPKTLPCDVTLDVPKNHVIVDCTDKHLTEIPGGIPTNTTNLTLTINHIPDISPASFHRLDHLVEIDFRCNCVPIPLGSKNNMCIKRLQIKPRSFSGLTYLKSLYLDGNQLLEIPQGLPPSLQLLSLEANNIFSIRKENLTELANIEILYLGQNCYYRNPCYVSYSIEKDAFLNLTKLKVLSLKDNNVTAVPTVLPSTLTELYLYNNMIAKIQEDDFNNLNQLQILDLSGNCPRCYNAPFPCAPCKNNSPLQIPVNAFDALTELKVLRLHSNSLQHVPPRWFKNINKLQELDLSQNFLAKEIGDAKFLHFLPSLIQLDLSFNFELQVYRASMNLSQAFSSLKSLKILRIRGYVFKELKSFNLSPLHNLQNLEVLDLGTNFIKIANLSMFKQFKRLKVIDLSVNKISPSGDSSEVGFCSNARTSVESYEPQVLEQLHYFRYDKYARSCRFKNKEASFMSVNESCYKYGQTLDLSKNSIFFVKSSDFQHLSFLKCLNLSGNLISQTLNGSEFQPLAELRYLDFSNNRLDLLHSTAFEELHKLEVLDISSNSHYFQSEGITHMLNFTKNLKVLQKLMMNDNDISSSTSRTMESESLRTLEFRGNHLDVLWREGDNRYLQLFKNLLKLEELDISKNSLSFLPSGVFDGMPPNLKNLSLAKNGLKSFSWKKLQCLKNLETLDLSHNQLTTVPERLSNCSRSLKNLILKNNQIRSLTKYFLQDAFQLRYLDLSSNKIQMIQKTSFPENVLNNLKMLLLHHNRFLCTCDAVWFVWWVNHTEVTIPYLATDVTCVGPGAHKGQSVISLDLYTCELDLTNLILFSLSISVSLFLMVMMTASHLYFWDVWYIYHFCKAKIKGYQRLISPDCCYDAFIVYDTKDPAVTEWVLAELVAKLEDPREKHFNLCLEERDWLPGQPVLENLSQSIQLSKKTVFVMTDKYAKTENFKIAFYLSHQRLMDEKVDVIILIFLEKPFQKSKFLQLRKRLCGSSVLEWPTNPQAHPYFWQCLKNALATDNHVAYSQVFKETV
The experiment in a line: TLR7 inhibition reporter assay (HEK-Blue cells, SEAP reporter, gardiquimod stimulation). The following applies: HEK-Blue cells overexpressing human TLR7, SEAP reporter, gardiquimod 7.5 μM. Summed up:
as §1

One may read the IC50 as the concentration that gives 50% inhibition. Higher therefore signals a need for much substance. As for `Cc1c(-c2[nH]c3ccc(C4CCN(CC(=O)N(C)C)CC4)cc3c2C(C)C)cn2ccnc2c1C` [Example 412, 2-(4-(2-(7,8-dimethylimidazo[1,2-a]pyridin-6-yl)-3-isopropyl-1H-indol-5-yl)piperidin-1-yl)-N,N-dimethylacetamide], the IC50 at human TLR8 was under 100 nM; on human TLR9 it was 100 to 1000 nM; against human TLR7, under 100 nM.
Turning to `CC(C)c1c(-c2cnc3cnccn23)[nH]c2ccc(C3CCN(CC(=O)N(C)C)CC3)cc12` [Example 426, 2-(4-(2-(imidazo[1,2-a]pyrazin-3-yl)-3-isopropyl-1H-indol-5-yl)piperidin-1-yl)-N,N-dimethylacetamide], the IC50 is 1000 to 50000 nM against human TLR8, 1000 to 50000 nM against human TLR9 and over 3130 nM against human TLR7.
With `Cc1c(-c2ncnc3[nH]cnc23)[nH]c2ccc(C3CCN(C4CCN(C(C)C)CC4)CC3)cc12` [Example 815, 6-(5-(1′-isopropyl-[1,4′-bipiperidin]-4-yl)-3-methyl-1H-indol-2-yl)-9H-purine], the half-maximal inhibitory concentration (IC50) at human TLR8 was under 100 nM; against human TLR9 it was under 100 nM; against human TLR7 it was 1000 to 50000 nM.
As for `CCc1c(-c2cnc3cccnn23)[nH]c2ccc(C3CCNCC3)cc12` [Example 187, 3-(3-ethyl-5-(piperidin-4-yl)-1H-indol-2-yl)imidazo[1,2-b]pyridazine], the concentration for half-maximal inhibition (IC50) at human TLR8, against human TLR9 and against human TLR7 was 1000 to 50000 nM throughout.
Regarding `CC(C)c1c(-c2ccnc3[nH]ncc23)[nH]c2ccc(C3CCN(Cc4ccc(N5CCN(C)CC5)cc4)CC3)cc12` [Example 919, 4-(3-isopropyl-5-(1-(4-(4-methylpiperazin-1-yl)benzyl)piperidin-4-yl)-1H-indol-2-yl)-1H-pyrazolo[3,4-b]pyridine], the values for the IC50 against human TLR8, at human TLR9 and against human TLR7 were under 100 nM, 100 to 1000 nM and under 100 nM, respectively.
Turning to `COc1cc(-c2[nH]c3ccc(C4CCN(C(=O)CN(C)C)CC4)cc3c2C(C)C)cc2nc(C)nn12` [Example 496, 2-(dimethylamino)-1-(4-(3-isopropyl-2-(5-methoxy-2-methyl-[1,2,4]triazolo[1,5-a]pyridin-7-yl)-1H-indol-5-yl)piperidin-1-yl)ethan-1-one], the IC50 against human TLR8 is under 100 nM; against human TLR9, 1000 to 50000 nM; against human TLR7, under 100 nM.
`Cc1cc2ncnn2nc1-c1[nH]c2ccc(C3CCN(C(=O)CN(C)C)CC3)cc2c1C(C)C` [Example 455, 2-(dimethylamino)-1-(4-(3-isopropyl-2-(7-methyl-[1,2,4]triazolo[1,5-b]pyridazin-6-yl)-1H-indol-5-yl)piperidin-1-yl)ethan-1-one]: the IC50 was under 100 nM against human TLR8, 1000 to 50000 nM against human TLR9 and under 100 nM against human TLR7.
In the case of `Cc1cc2cc(-c3[nH]c4ccc(C5CCN(CC(C)(C)O)CC5)cc4c3C(C)C)cc(CC(C)C)n2n1` [Example 770, 1-(4-(2-(7-isobutyl-2-methylpyrazolo[1,5-a]pyridin-5-yl)-3-isopropyl-1H-indol-5-yl)piperidin-1-yl)-2-methylpropan-2-ol], the IC50 against human TLR8 was over 3130 nM; against human TLR9 it was 1000 to 50000 nM; on human TLR7 it was over 3130 nM.
`CC(C)c1c(-c2ccc3cnnn3c2)[nH]c2ccc(C3CCN(C4CCOCC4)CC3)cc12` [Example 695, 6-(3-isopropyl-5-(1-(tetrahydro-2H-pyran-4-yl)piperidin-4-yl)-1H-indol-2-yl)-[1,2,3]triazolo[1,5-a]pyridine]: the results for the IC50 on human TLR8, at human TLR9 and against human TLR7 were under 100 nM, 100 to 1000 nM and 100 to 1000 nM, respectively.
For `CC(C)c1c(-c2ccnc3[nH]ncc23)[nH]c2cc(F)c(C3CCN(CC4CCNC4)CC3)cc12` (stereo not drawn) [Example 853, 4-(6-fluoro-3-isopropyl-5-(1-(pyrrolidin-3-ylmethyl)piperidin-4-yl)-1H-indol-2-yl)-1H-pyrazolo[3,4-b]pyridine], the IC50 on human TLR8, on human TLR9 and against human TLR7 was under 100 nM each time.
Regarding `Cc1cc2cc(-c3[nH]c4ccc(C5CCN(C(=O)CN(C)C)CC5)cc4c3C(C)C)cc(CC(C)C)n2n1` [Example 524, 2-(dimethylamino)-1-(4-(2-(7-isobutyl-2-methylpyrazolo[1,5-a]pyridin-5-yl)-3-isopropyl-1H-indol-5-yl)piperidin-1-yl)ethan-1-one], the values for the IC50 against human TLR8, at human TLR9 and against human TLR7 were over 3130 nM, 1000 to 50000 nM and over 3130 nM, respectively.
Regarding `CCc1c(-c2cc3ccccc3o2)[nH]c2ccc(C3CCNCC3)cc12` [Example 186, 2-(benzofuran-2-yl)-3-ethyl-5-(piperidin-4-yl)-1H-indole], the 50% inhibitory concentration (IC50) against human TLR8, on human TLR9 and against human TLR7 was 1000 to 50000 nM in each case.
Consider `Cc1cc(-c2[nH]c3ccc(C4CCNCC4)cc3c2C(C)C)c(C)n2nnnc12` [Example 74, 6-(3-isopropyl-5-(piperidin-4-yl)-1H-indol-2-yl)-5,8-dimethyltetrazolo[1,5-a]pyridine], for which the IC50 against human TLR8 was under 100 nM; on human TLR9 it was 1000 to 50000 nM; on human TLR7, under 100 nM.
